From ChEMBL document CHEMBL1201862, “PubChem BioAssay data set” (2004)
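How tested: cells in 96-well plates exposed to compound for 48 hours at five concentrations. Here, GI50 denotes the concentration required for 50% inhibition of growth.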 Active and inactive are the calls of the source. Rule as the data show it: active = GI50 up to about 1.1 µM and inactive = higher.

Assays:
Assay in all cases: DTP human tumour cell line panel, 48 h
[1] = test system: A498
[2] = test system: ACHN
[3] = test system: COLO 205
[4] = test system: DU-145
[5] = test system: HCT-15
[6] = test system: Hs-578T
[7] = test system: KM12
[8] = test system: LOX IMVI
[9] = test system: MCF7
[10] = test system: MOLT-4
[11] = test system: RXF 393
[12] = test system: SK-MEL-28
[13] = test system: SK-MEL-5
[14] = test system: SNB-19
[15] = test system: SNB-75
[16] = test system: T47D
[17] = test system: TK-10
[18] = test system: U-251
[19] = test system: HOP-92
[20] = test system: MDA-MB-231

| SMILES | GI50 [1] | GI50 [2] | GI50 [3] | GI50 [4] | GI50 [5] | GI50 [6] | GI50 [7] | GI50 [8] | GI50 [9] | GI50 [10] | GI50 [11] | GI50 [12] | GI50 [13] | GI50 [14] | GI50 [15] | GI50 [16] | GI50 [17] | GI50 [18] | GI50 [19] | GI50 [20] |
| --- | --- | --- | --- | --- | --- | --- | --- | --- | --- | --- | --- | --- | --- | --- | --- | --- | --- | --- | --- | --- |
| CC(Nc1ccc(Cl)cc1)c1ccncc1 (centres undefined) | 81.7 µM (inactive) | > 100 µM (inactive) | > 100 µM (inactive) | 74.6 µM (inactive) | > 100 µM | > 100 µM (inactive) | 22.3 µM (inactive) | > 100 µM (inactive) | > 100 µM (inactive) | 64.3 µM (inactive) | 41.8 µM (inactive) | > 100 µM (inactive) | 36.6 µM (inactive) | > 100 µM (inactive) | > 100 µM (inactive) | 42.3 µM (inactive) | > 100 µM (inactive) | > 100 µM (inactive) |  |  |
| CC1=C(C(=O)NNC(=O)Cc2ccccc2)CC(C(=O)NNC(=O)Cc2ccccc2)=C(C)N1 | > 100 µM (inactive) | > 100 µM (inactive) | > 100 µM (inactive) | > 100 µM (inactive) | > 100 µM |  | > 100 µM (inactive) | 80 µM (inactive) | > 100 µM (inactive) |  | 47.8 µM (inactive) | > 100 µM (inactive) | > 100 µM (inactive) | > 100 µM (inactive) | > 100 µM (inactive) | 54.8 µM (inactive) | > 100 µM (inactive) | > 100 µM (inactive) | > 100 µM (inactive) | > 100 µM (inactive) |
| Cc1cn([C@H]2C[C@H](O)[C@@H](CO)O2)c(=O)nc1N | > 100 µM (inactive) | > 100 µM (inactive) | > 100 µM (inactive) | > 100 µM (inactive) | > 100 µM | > 100 µM (inactive) | > 100 µM (inactive) | > 100 µM (inactive) | > 100 µM (inactive) | > 100 µM (inactive) |  | > 100 µM (inactive) | > 100 µM (inactive) | > 100 µM (inactive) | > 100 µM (inactive) | > 100 µM (inactive) | > 100 µM (inactive) | > 100 µM (inactive) |  | > 100 µM (inactive) |
| O=S(=O)(c1ccccc1)n1c(C(O)c2ccncc2)cc2ccccc21 (centres undefined) | 38.7 µM (inactive) | 37.7 µM (inactive) | 39.7 µM (inactive) | 40.5 µM (inactive) | 33.7 µM |  | 57.1 µM (inactive) | 40.3 µM (inactive) | 20.9 µM (inactive) | 23.7 µM (inactive) | 48.2 µM (inactive) | 55.1 µM (inactive) | 16.8 µM (inactive) | 50 µM (inactive) | 34 µM (inactive) | 36 µM (inactive) | 28.4 µM (inactive) | 41 µM (inactive) | 27 µM (inactive) | 74.6 µM (inactive) |
| C/C(=C\CO)CC/C=C(\C)CNc1c(F)c(F)c(F)c(F)c1F |  | 43.2 µM (inactive) | 27.5 µM (inactive) | 43.6 µM (inactive) | 30.2 µM | 33.7 µM (inactive) | 27.5 µM (inactive) | 29.2 µM (inactive) | 29.2 µM (inactive) | 29.6 µM (inactive) | 24.8 µM (inactive) | 20.5 µM (inactive) | 15.8 µM (inactive) | 27.7 µM (inactive) | 28.1 µM (inactive) | 61.2 µM (inactive) | 29.5 µM (inactive) | 24.3 µM (inactive) |  | 19 µM (inactive) |
| NCC(=O)Nc1ccccc1 | > 100 µM (inactive) | > 100 µM (inactive) |  | > 100 µM (inactive) | > 100 µM | > 100 µM (inactive) | > 100 µM (inactive) | > 100 µM (inactive) |  | > 100 µM (inactive) | > 100 µM (inactive) | > 100 µM (inactive) | > 100 µM (inactive) | > 100 µM (inactive) | > 100 µM (inactive) | > 100 µM (inactive) | > 100 µM (inactive) | > 100 µM (inactive) | > 100 µM (inactive) | 15.5 µM (inactive) |
| O=C(/C(=C\C(=O)c1cccs1)c1ccsc1)c1ccc(Br)cc1 | > 100 µM (inactive) | > 100 µM (inactive) | > 100 µM (inactive) | > 100 µM (inactive) | > 100 µM | > 100 µM (inactive) | > 100 µM (inactive) |  | > 100 µM (inactive) | > 100 µM (inactive) |  | > 100 µM (inactive) | > 100 µM (inactive) | > 100 µM (inactive) | > 100 µM (inactive) | 18.6 µM (inactive) | > 100 µM (inactive) | > 100 µM (inactive) |  | > 100 µM (inactive) |
| CC(/C=N/N=C1NCCCCN1)=N\N=C1NCCCCN1 |  | > 100 µM (inactive) | 22.3 µM (inactive) |  | > 100 µM | > 100 µM (inactive) | > 100 µM (inactive) | 16.7 µM (inactive) | 64.9 µM (inactive) | 87.3 µM (inactive) | > 100 µM (inactive) | > 100 µM (inactive) | 49.2 µM (inactive) | > 100 µM (inactive) | > 100 µM (inactive) | > 100 µM (inactive) | > 100 µM (inactive) | > 100 µM (inactive) | 37.9 µM (inactive) | > 100 µM (inactive) |
